# Columns and labels:
# Type in all cases: in vivo
# AMARE [1] = assay: Post-emergence herbicidal activity, glasshouse pot test; conditions: Amaranthus retroflexus; application post-emergence; rate 1000 g/Ha; evaluated after 13 days
# Summary of the method: (§1)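 Pot-grown seedlings sprayed 8 days after sowing with active ingredient in acetone/water (50:50) plus 0.5% Tween 20. Glasshouse at 24/16 °C day/night, 14 h light, 65% humidity, watered twice daily. Damage scored after 13 days on a 0–5 scale (5 = total damage, 0 = none).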
# SETFA [2] = assay: as above; conditions: Setaria faberi; application post-emergence; rate 1000 g/Ha; evaluated after 13 days
# Summary of the method: as §1
# ABUTH [3] = assay: as above; conditions: Abutilon theophrasti; application post-emergence; rate 1000 g/Ha; evaluated after 13 days
# Summary of the method: as §1
# ALOMY [4] = assay: as above; conditions: Alopecurus myosuroides; application post-emergence; rate 1000 g/Ha; evaluated after 13 days
# Summary of the method: as §1
# ZEAMX [5] = assay: as above; conditions: Zea mays; application post-emergence; rate 1000 g/Ha; evaluated after 13 days
# Summary of the method: as §1
# ECHCG [6] = assay: as above; conditions: Echinochloa crus-galli; application post-emergence; rate 1000 g/Ha; evaluated after 13 days
# Summary of the method: as §1
# AMARE [7] = assay: Pre-emergence herbicidal activity, glasshouse pot test; conditions: rate 1000 g/Ha, evaluated after 13 days, scale 0-5
# Summary of the method: (§2)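 Damage was rated 13 days after treatment on a 0–5 scale (0 = no damage, 5 = total damage). Pots of seeds in standard soil were sprayed one day after sowing with an aqueous solution from an acetone/water (50:50), 0.5% Tween 20 formulation and kept at 24/16 °C day/night.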
# SETFA [8] = assay: as above; conditions: rate 1000 g/Ha, evaluated after 13 days, scale 0-5
# Summary of the method: as §2
# ABUTH [9] = assay: as above; conditions: rate 1000 g/Ha, evaluated after 13 days, scale 0-5
# Summary of the method: as §2
# ALOMY [10] = assay: as above; conditions: rate 1000 g/Ha, evaluated after 13 days, scale 0-5
# Summary of the method: as §2
# ZEAMX [11] = assay: as above; conditions: rate 1000 g/Ha, evaluated after 13 days, scale 0-5
# Summary of the method: as §2
# ECHCG [12] = assay: as above; conditions: rate 1000 g/Ha, evaluated after 13 days, scale 0-5
# Summary of the method: as §2
SMILES,Post-emergence herbicidal activity AMARE (damage score 0-5) (AMARE [1]),Post-emergence herbicidal activity SETFA (damage score 0-5) (SETFA [2]),Post-emergence herbicidal activity ABUTH (damage score 0-5) (ABUTH [3]),Post-emergence herbicidal activity ALOMY (damage score 0-5) (ALOMY [4]),Post-emergence herbicidal activity ZEAMX (damage score 0-5) (ZEAMX [5]),Post-emergence herbicidal activity ECHCG (damage score 0-5) (ECHCG [6]),"AMARE damage score, application pre-emergence (AMARE [7])","SETFA damage score, application pre-emergence (SETFA [8])","ABUTH damage score, application pre-emergence (ABUTH [9])","ALOMY damage score, application pre-emergence (ALOMY [10])","ZEAMX damage score, application pre-emergence (ZEAMX [11])","ECHCG damage score, application pre-emergence (ECHCG [12])"
"C=CCC1C(O)N(c2cc(C(F)(F)F)ccn2)C(=O)N1C (stereo not drawn) [Compound A32, 5-allyl-4-hydroxy-1-methyl-3-[4-(trifluoromethyl)-2-pyridyl]imidazolidin-2-one]",5,5,5,5,2,5,5,4,5,4,2,5
O=C1N(c2cc(C(F)(F)F)ccn2)C(O)[C@H]2CCCN12 (stereo partly drawn) [Compound A47],5,5,5,5,4,5,5,4,5,4,2,5
"Cc1ccnc(N2C(=O)N(C)C(C)C2O)c1 (single isomer, unassigned) [Compound A27]",5,3,5,3,3,3,5,4,4,3,3,4
"CC1C(O)N(c2cc(C(C)(C)C)ccn2)C(=O)N1C (single isomer, unassigned) [Compound A30]",5,5,5,5,3,5,5,5,5,4,2,5
CCOC1C(O)N(c2cc(C(F)(F)F)c(-c3ccccc3)cn2)C(=O)N1C (stereo not drawn) [Compound A13],5,5,5,4,0,5,5,3,5,3,1,3
CCOC1C(O)N(c2cc(C(C)(C)F)ccn2)C(=O)N1C (stereo not drawn) [Compound A61],5,5,5,5,3,5,5,1,5,4,1,4
CCCOC1C(O)N(c2cc(C(F)(F)F)ccn2)C(=O)N1C (stereo not drawn) [Compound A2],5,5,5,4,2,5,5,3,5,2,1,4
C#CCOC1C(O)N(c2cc(C(F)(F)F)ccn2)C(=O)N1C (stereo not drawn) [Compound A44],5,5,5,4,4,5,5,4,5,4,2,5
"CC1C(O)N(c2cc(C(F)(F)F)c(NC(=O)C(C)(C)C)cn2)C(=O)N1C (single isomer, unassigned) [Compound A57]",5,5,5,5,4,5,5,3,5,4,1,3
"CCOC1C(O)N(c2cc(C(F)(F)F)ccn2)C(=O)N1C (racemic) [Compound A6, 5-ethoxy-4-hydroxy-1-methyl-3-[4-(trifluoromethyl)-2-pyridyl]imidazolidin-2-one]",5,5,5,5,2,5,5,5,5,4,2,4
COc1cncc(-c2cnc(N3C(=O)N(C)C(C)C3O)cc2C(F)(F)F)c1 (stereo not drawn) [Compound A20],5,5,5,5,4,5,5,5,5,4,5,4
"CON1C(=O)N(c2cc(C(F)(F)F)ccn2)C(O)[C@@H]1C (mixture of isomers) [Compound A3, (4R,5S)-4-hydroxy-1-methoxy-5-methyl-3-[4-(trifluoromethyl)-2-pyridyl]imidazolidin-2-one and (4S,5S)-4-hydroxy-1-methoxy-5-methyl-3-[4-(trifluoromethyl)-2-pyridyl]imidazolidin-2-one]",5,5,5,5,5,5,5,5,4,3,3,5
CCC1C(O)N(c2cc(C(F)(F)F)ccn2)C(=O)N1C (stereo not drawn) [Compound A1],5,5,5,5,3,5,5,5,5,4,3,5
